Consider 14 molecules from ChEMBL document CHEMBL1144635, “Lead optimization of methionine aminopeptidase-2 (MetAP2) inhibitors containing sulfonamides of 5,6-disubstituted anthranilic acids” (Bioorg Med Chem Lett, 2007).

Data set [1] concerns HT-1080. The experiment in a line: Antiproliferative activity against HT1080 cells. The conditions noted are these: Homo sapiens.
A short description of data set [2]: Oral bioavailability in mouse at 30 mg/kg, po. It is filed as ADME, organism-based. As to conditions: in vivo.
Data set [3] is described as follows: Volume of distribution in mouse at 10 mg/kg, iv. It is filed as ADME, organism-based. The arrangement: dose 10 mg/kg, route intravenous. The conditions noted are these: in vivo, read-out: Vdss.
A short description of data set [4]: Clearance in mouse at 10 mg/kg, iv. The format is ADME, organism-based. Further details: dose 10 mg/kg, route intravenous. As to conditions: in vivo.
Data set [5] has as its system HT-1080. The experiment in a line: Antiproliferative activity against HT1080 cells in presence of 40 mg/ml HSA. The conditions noted are these: Homo sapiens.
Data set [6] is described as follows: Cmax in mouse at 30 mg/kg, po. It is filed as ADME, organism-based. Further details: dose 30 mg/kg, route oral. As to conditions: in vivo.
A short description of data set [7]: Half life in mouse at 10 mg/kg, iv. The conditions noted are these: in vivo. The format is ADME, organism-based. The arrangement: dose 10 mg/kg, route intravenous.

One may read the EC50 as the concentration giving half of the maximal effect. As for `CCc1ccc(NS(=O)(=O)c2ccc(F)cc2)c(C(=O)O)c1C`, the EC50 with HT-1080 [1] was 4900 nM.

In the data set with HT-1080 [1], `CCc1ccc(NS(=O)(=O)c2ccc(F)cc2)c(C(=O)O)c1OC` displayed an EC50 of 1400 nM.

In turn, `CCc1ccc(NS(=O)(=O)c2ccc(F)cc2CCCN(CC)CC)c(C(=O)O)c1OCCN` yielded an EC50 with HT-1080 [1] of 30000 nM.

The bioavailability is the share of a dose that reaches the circulation, judged against a reference dose that is usually intravenous. Read a high bioavailability as much systemic uptake. A word on the clearance: it is the volume of plasma or blood freed of the substance per unit of time. A high value points to efficient removal. In general, Cmax refers to the maximum level reached in the sampled fluid or tissue. Broadly, the half-life is the time in which the quantity being followed falls by half. A higher half-life goes with slow decline. Molecule `CCc1ccc(NS(=O)(=O)c2ccccc2NCCCCN(C)C)c(C(=O)O)c1OC` came in with a bioavailability in data set [2] of 31%. In data set [3], the Vd is 0.8 L/kg. The molecule also showed a clearance in data set [4] of 35 mL/min/kg. For the same molecule, the EC50 in the data set on HT-1080 [5] turned out to be 370 nM; in the data set on HT-1080 [1], 250 nM. In data set [6], the Cmax was 5900 nM. In data set [7], the half-life is 18 min.

`CCc1ccc(NS(=O)(=O)c2ccc(F)cc2)c(C(=O)O)c1OCCN`: the bioavailability in data set [2] turned out to be 38%. Moreover, the Vd in data set [3] worked out at 1.1 L/kg. Moreover, the clearance in data set [4] is 50 mL/min/kg. The molecule also gave a Cmax in data set [6] of 2400 nM. In data set [7], the half-life was 18 min.

The molecule `CCc1ccc(NS(=O)(=O)c2ccccn2)c(C(=O)O)c1C` came in with a bioavailability in data set [2] of 86%. Besides, the Vd in data set [3] is 5.5 L/kg. For the same molecule, in data set [4], the clearance was 26.7 mL/min/kg. For the same molecule, the concentration in data set [6] peaked (Cmax) at 34000 nM. Besides, the half-life in data set [7] was 144 min. The response with HT-1080 [1] was half-maximal at 12000 nM (EC50).

`CCc1ccc(NS(=O)(=O)c2ccc(F)cc2/C=C\CN(CC)CC)c(C(=O)O)c1OC` yielded a bioavailability in data set [2] of 16%. Moreover, the Vd in data set [3] was 13.8 L/kg. Besides, the clearance in data set [4] was 675 mL/min/kg. The EC50 with HT-1080 [5] was determined as 150 nM; in the data set with HT-1080 [1], 70 nM. In data set [6], this molecule displayed a Cmax of 100 nM. In addition, in data set [7], the half-life is 12 min.

As to `COc1c(-c2ccoc2)ccc(NS(=O)(=O)c2ccc(F)cc2NCCCN(C)C)c1C(=O)O`, the figures for the EC50 in the data set with HT-1080 [5] and in the data set on HT-1080 [1] were 2900 nM and 320 nM, respectively.

Regarding `CCN(CC)C/C=C\c1cc(F)ccc1S(=O)(=O)Nc1ccc(-c2ccoc2)c(OC)c1C(=O)O`, the EC50 is 200 nM in the data set on HT-1080 [5] and 60 nM in the data set with HT-1080 [1].

In the data set with HT-1080 [1], `COc1c(-c2ccoc2)ccc(NS(=O)(=O)c2ccc(F)cc2)c1C(=O)O` had an EC50 of 3800 nM.

`CCc1ccc(NS(=O)(=O)c2ccccc2NCCC2CCCN2C)c(C(=O)O)c1OC` (centres undefined): in data set [2], the bioavailability stood at 13%. Besides, the Vd in data set [3] turned out to be 2 L/kg. This molecule showed a clearance in data set [4] of 83.3 mL/min/kg. Besides, the EC50 in the data set with HT-1080 [5] was determined as 1900 nM; with HT-1080 [1] it was 480 nM. The Cmax in data set [6] amounted to 900 nM. In data set [7], this molecule showed a half-life of 18 min.

In the data set on HT-1080 [1], `CCCc1ccccc1S(=O)(=O)Nc1ccc(CC)c(OCCN)c1C(=O)O` yielded an EC50 of 83000 nM.

`COc1c(-c2ccoc2)ccc(NS(=O)(=O)c2ccc(F)cc2Br)c1C(=O)O`: the EC50 in the data set on HT-1080 [1] came out at 11000 nM.

`CCc1ccc(NS(=O)(=O)c2ccccc2NCCCN2CCCCC2C)c(C(=O)O)c1OC` (centres undefined): the EC50 with HT-1080 [5] turned out to be 1200 nM; in the data set with HT-1080 [1], 370 nM.
